Assay results published in patent US6727252B1, “Methods of modulating serine/threonine protein kinase function with 5-azaquinoxaline-based compounds” (Zentaris AG, priority 1997, dated 2004).
Like-named read-outs stand apart in the source and are kept apart here.

Legend:
[1] = test system: 3T3/H-Ras (NIH 3T3 clone 7 cells expressing genomic fragment of oncogenic H-Ras); experiment: Growth of NIH 3T3 cells over expressing H-Ras (SRB); assay type: cell-based; details: Mus musculus, NIH3T3, 72 h; cell growth, 2% calf serum/DMEM, 3 days with compound
Description: The following assay measures growth rates for NIH-3T3 cells expressing RAS. The purpose of the assay is to determine the effects of compounds on the growth of NIH 3T3 cells over expressing H-Ras.
3T3/H-Ras (NIH 3T3 clone 7 cells expressing genomic fragment of oncogenic H-Ras).
2% calf serum/DMEM+2 mM glutamine, Pen/Strep
(§1) 1. Trypsinize cells. Transfer […] of cell suspension to 10 mL of isotone. Count cells with a Coulter Counter.
2. Dilute cells in growth medium to 60,000 cell/mL. Transfer 100 µL of cells to each well in a 96-well flat bottom plate to give 6000 cells/well.
3. Use half of plate (4 rows) for each comound and quadruplicate wells for each comound concentration, and a set of 4 wells for medium control.
(§2) 4. Gently shake plates to allow for uniform attachment of the cells.
(§3) 5. Incubate the plates at 37 C in a 10% CO2 incubator.
1. In a 96-well round bottom plate, add 120 µL of growth medium containing 2×final % DMSO found in highest screening concentration of compound to columns 1 to 11. For example, if the highest concentration is […], and this is made from a 100 mM stock, 1×DMSO is 0.1%, so 2×DMSO is 0.2%. This plate is used to titrate out the compound, 4 rows per compound.
2. In a sterile 15 mL tube, make a 2×solution of the highest screening concentration of compound in growth medium plus 2×DMSO. 1 mL per cell line is needed. The starting concentration of the compound is usually 100 µM but this concentration may vary depending upon the solubility of the compound.
3. Transfer 240 µL of the 2×starting compound solution to qudruplicate wells in column 12 of the 96-well round bottom plate. Do 1:2 serial dilutions across the plate from right to left by transferring […] from column 12 to column 11, column 11 to 10 and so on through column 2. Transfer 100 µL of compound dilutions, and 100 µL of medium in column 1, onto […] medium on cells in corresponding wells of 96-well flat bottom plate. Total volume per well should be […].
4. Return the plate to the incubattor and incubate for 3 days.
(§4) 1. Aspirate or pour off medium. Add […] cold 10% TCA to each well to fix cells. Incubate plate for at least 60 min. at 4 C.
(§5) 2. Discard TCA and rinse wells 5 times with tap water. Dry plates upside down on paper towels.
(§6) 3. Stain cells with 100 µL/well 0.4% SRB for 10 min.
4. Pour of SRB and rinse wells 5 times with 1% acetic acid. Dry plates completely upside down on paper towels.
(§7) 5. Solubilize dye with 100 µL/well 10 mM Tris base for 5-10 min. on shaker.
6. Read plates on Dynatech ELISA Plate REader at 570 nm with reference at 630 nm.

[2] = test system: A549 human lung carcinoma cells; experiment: Growth of A549 cells (SRB); assay type: cell-based; details: cell growth
Description: The following assay measures growth rates for A549 cells. The purpose of the assay is to determine the effects of compounds on the growth of A549 human lung carcinoma cells. A549 cells are readily accessible from commercial sources, such as ATCC (CCL185). […]
as §1
2. Dilute cells in growth medium to 20,000 cell/mL. Transfer 100 µL of cells to each well in a 96-well flat bottom plate to give 2000 cells/well.
3. Use half of plate (4 rows) for each compound and quadruplicate wells for each compound concentration, and a set of 4 wells for medium control.
as §2, §3
1. In a 96 well-round bottom plate, add 120 µL of growth medium containing 2×final %DMSO found in highest screening concentration of compound to columns 1 to 11. For example, if the highest screening concentration is 100 µM, and this is made from a 100 mM stock, 1×DMSO is 0.1%, so 2×DMSO is 0.2%. This plate is used to titrate out the compound, 4 rows per compound.
2. In a sterile 15 mL tube, make a 2×solution of the highest screening concentration of compound in growth medium plus. 2×DMSO. 1 mL per cell line is needed. The starting concentration of the compound is usually 100 µM but this concentration may vary depending upon the solubility of the compound.
3. Transfer 240 µL of the 2×starting compound solution to quadruplicate wells in column 12 of the 96-well round bottom plate. Do 1:2 serial dilutions across the plate from right to left by transferring […] from column 12 to column 11, column 11 to 10 and so on through column
2. Transfer 100 µL of compound dilutions, and 100 µL of medium in column 1, onto […] medium on cells in corresponding wells of 96-well flat bottom plate. Total volume per well should be 200 L.
4. Return the plate to the incubator and incubate for 3 days.
as §4, §5, §6
4. Pour off SRB and rinse wells 5 times with 1% acetic acid. Dry plates completely upside down on paper towels.
as §7
6. Read plates on Dynatech ELISA Plate Reader at 570 nm with reference at 630 nm.

[3] = 2% FBS, read-out: IC50 (M) A549 (2% FBS)
[4] = growth medium 10% fetal calf serum in Ham's F12-K, read-out: IC50 (M) A549

Row | melting point | IC50 [2, 3] | IC50 [2, 4] | Compound | IC50 [1]
1 | – | – | – | Oc1ccc(-c2cnc3ccc(Nc4ccccc4)nc3n2)cc1 [Compound A-1, 6-Phenylamino-3-(4-hydroxyphenyl)-5-azaquinoxaline] | 1.04 µM
2 | 271 to 273 °C | > 1e-05 M | 2.51e-05 M | Oc1ccc(-c2cnc3ccc(NCc4ccccc4)nc3n2)cc1 [Compound A-2, 6-Benzylamino-3-(4-hydroxyphenyl)-5-Azaquinoxaline] | 7.6 µM
3 | – | > 1e-05 M | 2.38e-05 M | Fc1ccc(CNc2ccc3nc(-c4ccccc4)c(-c4ccccc4)nc3n2)cc1 [Compound A-6, 2,3-Diphenyl-6-(4-fluorobenzylamino)-5-azaquinoxaline] | 13.5 µM
4 | – | – | – | Oc1ccc(-c2cnc3ccc(Nc4ccccc4Cl)nc3n2)cc1 [Compound A-36, 6-(2-Chlorophenylamino)3-(4-hydroxyphenyl)-5-azaquinoxaline] | 0.18 µM
5 | – | – | – | Clc1ccccc1Nc1ccc2ncc(-c3ccccc3)nc2n1 [Compound A-77, 6-(2-Chlorophenylamino)-3-phenyl-5-azaquinoxaline] | 0.7 µM
